ChEMBL document CHEMBL5532643, “Design and synthesis of etrasimod derivatives as potent antibacterial agents against Gram-positive bacteria” (Eur J Med Chem, 2024)
Converted amounts (≈) assume the structure as drawn. “And” between values parts separate entries of the source, which are not always exact repeats. Identical values can stand only once.

Tests used:
Type in all cases: functional
[1] = tested on: Staphylococcus aureus; test: Antibiofilm activity against Staphylococcus aureus ATCC 25923 assessed as inhibition of biofilm viability at 100 uM incubated for 18 to 20 hrs by resazurin staining based assay; conditions: time 18-20 hrs
[2] = tested on: Staphylococcus aureus; test: Antibacterial activity against Staphylococcus aureus ATCC 25923 assessed as reduction in bacterial growth incubated for 18 to 20 hrs by broth microdilution assay; conditions: time 18-20 hrs
[3] = tested on: Staphylococcus aureus; test: Antibiofilm activity against Staphylococcus aureus ATCC 25923 assessed as inhibition of biofilm biomass at 100 uM incubated for 18 to 20 hrs by crystal violet staining based assay; conditions: time 18-20 hrs
[4] = tested on: Staphylococcus aureus; test: Antibacterial activity against Staphylococcus aureus ATCC 25923 assessed as inhibition of bacterial growth at 40 uM incubated for 18 to 24 hrs by broth microdilution assay relative to control; conditions: time 18-24 hrs
[5] = tested on: Staphylococcus aureus; test: Antibacterial activity against Staphylococcus aureus ATCC 43300 assessed as reduction in bacterial growth incubated for 18 to 20 hrs by broth microdilution assay; conditions: time 18-20 hrs
[6] = tested on: Acinetobacter baumannii; test: Antibacterial activity against Acinetobacter baumannii NCTC 13423 assessed as reduction in bacterial growth incubated for 18 to 20 hrs by broth microdilution assay; conditions: time 18-20 hrs
[7] = tested on: Staphylococcus aureus; test: Antibacterial activity against […] Staphylococcus aureus ATCC 43300 assessed as reduction in bacterial growth incubated for 18 to 20 hrs by broth microdilution assay; conditions: time 18-20 hrs
[8] = tested on: Pseudomonas aeruginosa; test: Antibacterial activity against Pseudomonas aeruginosa ATCC 15442 assessed as reduction in bacterial growth incubated for 18 to 20 hrs by broth microdilution assay; conditions: time 18-20 hrs
[9] = tested on: Staphylococcus epidermidis; test: Antibacterial activity against Staphylococcus epidermidis RP62A assessed as reduction in bacterial growth incubated for 18 to 20 hrs by broth microdilution assay; conditions: time 18-20 hrs
[10] = tested on: Enterococcus faecalis; test: Antibacterial activity against Enterococcus faecalis ATCC 29212 assessed as reduction in bacterial growth incubated for 18 to 20 hrs by broth microdilution assay; conditions: time 18-20 hrs
[11] = tested on: Enterococcus faecalis; test: Antibacterial activity against vancomycin-resistant Enterococcus faecalis ATCC 51575 assessed as reduction in bacterial growth incubated for 18 to 20 hrs by broth microdilution assay; conditions: time 18-20 hrs
[12] = tested on: Staphylococcus epidermidis; test: Antibacterial activity against […] Staphylococcus epidermidis RP62A assessed as reduction in bacterial growth incubated for 18 to 20 hrs by broth microdilution assay; conditions: time 18-20 hrs
[13] = tested on: Enterococcus faecium; test: Antibacterial activity against vancomycin-resistant Enterococcus faecium ATCC 700221 assessed as reduction in bacterial growth incubated for 18 to 20 hrs by broth microdilution assay; conditions: time 18-20 hrs

Row | SMILES | inhibition at 100 µM [1] [%] | MIC [2] | inhibition at 100 µM [3] [%] | inhibition at 40 µM [4] [%] | MIC [5] [µM] | MIC [6] [µM] | MIC [7] [µM] | MIC [8] [µM] | MIC [9] [µM] | MIC [10] [µM] | MIC [11] [µM] | MIC [12] [µM] | MIC [13] [µM]
1 | O=C(O)CC1CCc2c1[nH]c1ccc(OCc3ccc(C4CCCC4)cc3)cc21 (stereo not drawn) | > 90 | 20 µM and 7.8 µg/mL | > 90 | ≤ 90 | – | – | – | – | – | – | – | – | –
2 | O=C(O)CC1CCc2c1[nH]c1ccc(OCc3ccc(C4CCCC4)c(OC(F)(F)F)c3)cc21 (stereo not drawn) | > 90 | 5 µM and 2.4 µg/mL | > 90 | ≤ 90 | – | – | – | – | – | – | – | – | –
3 | O=C(O)CC1CCc2c1[nH]c1ccc(OCc3ccc(C4CCCCC4)c(C(F)(F)F)c3)cc21 (stereo not drawn) | > 90 | 5 µM and 2.4 µg/mL | > 90 | ≤ 90 | – | – | – | – | – | – | – | – | –
4 | Cc1[nH]c2ccc(OCc3ccc(C4CCCC4)c(C(F)(F)F)c3)cc2c1CC(=O)O | > 90 | 20 µM and 8.6 µg/mL | > 90 | ≤ 90 | – | – | – | – | – | – | – | – | –
5 | O=C(O)c1ccc(OCc2ccc(C3CCCC3)c(C(F)(F)F)c2)cn1 | > 90 | 10 µM and 3.7 µg/mL | > 90 | ≤ 90 | 5 (≈ 1.83 µg/mL) | > 200 | 5 (≈ 1.83 µg/mL) | > 200 | 5 (≈ 1.83 µg/mL) | 10 (≈ 3.65 µg/mL) | 20 (≈ 7.31 µg/mL) | 10 (≈ 3.65 µg/mL) | 20 (≈ 7.31 µg/mL)
6 | O=C(O)CC1CCc2c1[nH]c1ccc(OCc3cccc(C(F)(F)F)c3)cc21 (stereo not drawn) | > 90 | > 40 µM and > 15.6 µg/mL | > 90 | ≤ 90 | – | – | – | – | – | – | – | – | –
7 | CS(=O)(=O)NC(=O)CC1CCc2c1[nH]c1ccc(OCc3ccc(C4CCCC4)c(C(F)(F)F)c3)cc21 (stereo not drawn) | > 90 | 5 µM and 2.7 µg/mL | > 90 | ≤ 90 | 5 (≈ 2.67 µg/mL) | > 200 | 5 (≈ 2.67 µg/mL) | > 200 | 10 (≈ 5.35 µg/mL) | 5 (≈ 2.67 µg/mL) | 5 (≈ 2.67 µg/mL) | 10 (≈ 5.35 µg/mL) | 10 (≈ 5.35 µg/mL)
8 | O=C(O)CC1CCc2c1[nH]c1ccc(OCc3ccc(-c4cccs4)c(C(F)(F)F)c3)cc21 (stereo not drawn) | > 90 | 10 µM and 4.7 µg/mL | > 90 | ≤ 90 | – | – | – | – | – | – | – | – | –
9 | NC(=O)CC1CCc2c1[nH]c1ccc(OCc3ccc(C4CCCC4)c(C(F)(F)F)c3)cc21 (stereo not drawn) | > 90 | 20 µM and 9.1 µg/mL | > 90 | ≤ 90 | – | – | – | – | – | – | – | – | –
10 | O=C(O)c1cc2cc(OCc3ccc(C4CCCC4)c(C(F)(F)F)c3)ccc2[nH]1 | > 90 | 5 µM and 2 µg/mL | > 90 | ≤ 90 | 5 (≈ 2.02 µg/mL) | > 200 | 5 (≈ 2.02 µg/mL) | > 200 | 5 (≈ 2.02 µg/mL) | 10 (≈ 4.03 µg/mL) | 10 (≈ 4.03 µg/mL) | 2.5 (≈ 1.01 µg/mL) | 10 (≈ 4.03 µg/mL)
11 | O=C(O)CC1CCc2c1[nH]c1ccc(OCc3ccc(C4CCCC4)c(F)c3)cc21 (stereo not drawn) | > 90 | 10 µM and 4.1 µg/mL | > 90 | ≤ 90 | – | – | – | – | – | – | – | – | –
12 | CCOC(=O)CC1CCc2c1[nH]c1ccc(OCc3ccc(C4CCCC4)c(C(F)(F)F)c3)cc21 (stereo not drawn) | > 90 | > 40 µM and > 19.4 µg/mL | > 90 | ≤ 90 | – | – | – | – | – | – | – | – | –
13 | CCCCCCCCOc1ccc2[nH]c3c(c2c1)CCC3CC(=O)O (stereo not drawn) | > 90 | 40 µM and 13.7 µg/mL | > 90 | ≤ 90 | – | – | – | – | – | – | – | – | –
14 | CCCCc1ccc(COc2ccc3[nH]c4c(c3c2)CCC4CC(=O)O)cc1C(F)(F)F (stereo not drawn) | > 90 | 10 µM and 4.5 µg/mL | > 90 | ≤ 90 | – | – | – | – | – | – | – | – | –
15 | O=C(O)CC1CCc2c1[nH]c1ccc(OCc3ccc(OCC4CCCC4)c(C(F)(F)F)c3)cc21 (stereo not drawn) | > 90 | 10 µM and 4.9 µg/mL | > 90 | ≤ 90 | – | – | – | – | – | – | – | – | –
16 | O=C(O)CCc1c[nH]c2ccc(OCc3ccc(C4CCCC4)c(C(F)(F)F)c3)cc12 | > 90 | 20 µM and 8.6 µg/mL | > 90 | ≤ 90 | – | – | – | – | – | – | – | – | –
17 | O=C(O)CC1CCc2c1[nH]c1ccc(OCc3ccc(N4CCOCC4)c(C(F)(F)F)c3)cc21 (stereo not drawn) | > 90 | > 40 µM and > 19 µg/mL | > 90 | ≤ 90 | – | – | – | – | – | – | – | – | –
18 | O=C(O)CC1CCc2c1[nH]c1ccc(OCc3ccc(C4CCCC4)c(C(F)(F)F)c3)cc21 (racemic) | > 90 | 5 µM and 2.3 µg/mL | > 90 | ≤ 90 | – | – | – | – | – | – | – | – | –
19 | O=C(O)Cc1ccc(OCc2ccc(C3CCCC3)c(C(F)(F)F)c2)cn1 | > 90 | > 40 µM and > 15.2 µg/mL | > 90 | ≤ 90 | – | – | – | – | – | – | – | – | –
20 | CC(=O)NC[C@H]1CN(c2ccc(N3CCOCC3)c(F)c2)C(=O)O1 [LINEZOLID] | – | – | – | – | – | – | – | – | – | 5 (≈ 1.69 µg/mL) | 5 (≈ 1.69 µg/mL) | – | 5 (≈ 1.69 µg/mL)
21 | O=C(O)CC1CCc2c1[nH]c1ccc(OCc3ccc(-c4ccc(Cl)s4)c(C(F)(F)F)c3)cc21 (stereo not drawn) | > 90 | 5 µM and 2.5 µg/mL | > 90 | ≤ 90 | – | – | – | – | – | – | – | – | –
22 | O=C(O)Cn1ccc2cc(OCc3ccc(C4CCCC4)c(C(F)(F)F)c3)ccc21 | > 90 | 20 µM and 8.3 µg/mL | > 90 | ≤ 90 | – | – | – | – | – | – | – | – | –
23 | FC(F)(F)c1cc(COc2ccc3[nH]ccc3c2)ccc1C1CCCC1 | > 90 | > 40 µM and > 14.4 µg/mL | > 90 | ≤ 90 | – | – | – | – | – | – | – | – | –
24 | Cc1nc(-c2ccc(C(F)(F)F)cc2)sc1COc1ccc2[nH]c3c(c2c1)CCC3CC(=O)O (stereo not drawn) | > 90 | 20 µM and 9.7 µg/mL | > 90 | ≤ 90 | – | – | – | – | – | – | – | – | –
25 | CC(C)Cc1ccc(COc2ccc3[nH]c4c(c3c2)CCC4CC(=O)O)cc1C(F)(F)F (stereo not drawn) | > 90 | 10 µM and 4.5 µg/mL | > 90 | ≤ 90 | – | – | – | – | – | – | – | – | –
26 | N#Cc1cc(COc2ccc3[nH]c4c(c3c2)CCC4CC(=O)O)ccc1C1CCCC1 (stereo not drawn) | > 90 | 40 µM and 16.6 µg/mL | > 90 | ≤ 90 | – | – | – | – | – | – | – | – | –
27 | O=C(O)Cc1c[nH]c2ccc(OCc3ccc(C4CCCC4)c(C(F)(F)F)c3)cc12 | > 90 | 20 µM and 8.3 µg/mL | > 90 | ≤ 90 | – | – | – | – | – | – | – | – | –
28 | O=C(O)CC1CCc2c1[nH]c1ccc(OCc3noc(-c4ccc(C(F)(F)F)cc4)n3)cc21 (stereo not drawn) | > 90 | > 40 µM and > 18.3 µg/mL | > 90 | ≤ 90 | – | – | – | – | – | – | – | – | –
